In ChEMBL document CHEMBL4270672, “Synthesis and Biological Evaluation of Fused Tricyclic Heterocycle Piperazine (Piperidine) Derivatives As Potential Multireceptor Atypical Antipsychotics” (J Med Chem, 2018):

Tests used:
[1] = molecular target: 5-hydroxytryptamine receptor 2A (Rattus norvegicus, UniProt P14842); assay: Displacement of [3H]-ketanserine from serotonin 5-HT2A receptor in rat brain cortex homogenates incubated for 30 mins by liquid scintillation counting
D(2) dopamine receptor = D(2) dopamine receptor (Rattus norvegicus, UniProt P61169)
D(2) dopamine receptor, sequence (P61169 whole entry): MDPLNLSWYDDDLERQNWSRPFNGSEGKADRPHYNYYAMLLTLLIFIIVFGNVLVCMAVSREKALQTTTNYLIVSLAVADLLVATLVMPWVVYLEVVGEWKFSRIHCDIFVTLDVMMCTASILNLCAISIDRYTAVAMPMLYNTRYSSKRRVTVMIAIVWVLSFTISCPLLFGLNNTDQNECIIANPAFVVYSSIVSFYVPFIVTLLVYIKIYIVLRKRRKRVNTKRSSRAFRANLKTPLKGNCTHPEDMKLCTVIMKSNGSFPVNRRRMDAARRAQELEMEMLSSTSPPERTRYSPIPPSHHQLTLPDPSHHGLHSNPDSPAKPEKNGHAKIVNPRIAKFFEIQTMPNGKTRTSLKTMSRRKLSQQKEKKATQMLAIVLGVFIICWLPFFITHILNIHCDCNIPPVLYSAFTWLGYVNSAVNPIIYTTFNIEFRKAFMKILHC

[2] = molecular target: T1, 5-hydroxytryptamine receptor 1A (Rattus norvegicus, UniProt P19327)
T1 sequence (P19327 whole entry): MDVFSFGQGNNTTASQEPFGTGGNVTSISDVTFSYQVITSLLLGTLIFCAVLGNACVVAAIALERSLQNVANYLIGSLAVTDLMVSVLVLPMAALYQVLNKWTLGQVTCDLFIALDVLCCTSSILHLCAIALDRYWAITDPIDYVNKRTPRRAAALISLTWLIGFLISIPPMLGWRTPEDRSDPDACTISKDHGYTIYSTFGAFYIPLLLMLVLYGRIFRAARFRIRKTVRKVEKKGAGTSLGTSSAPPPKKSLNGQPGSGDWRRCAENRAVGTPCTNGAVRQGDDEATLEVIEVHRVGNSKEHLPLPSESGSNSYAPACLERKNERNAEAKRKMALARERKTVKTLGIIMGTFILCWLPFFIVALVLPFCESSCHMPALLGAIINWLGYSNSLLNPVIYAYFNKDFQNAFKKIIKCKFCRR

5-hydroxytryptamine receptor 2A, sequence (P14842 whole entry): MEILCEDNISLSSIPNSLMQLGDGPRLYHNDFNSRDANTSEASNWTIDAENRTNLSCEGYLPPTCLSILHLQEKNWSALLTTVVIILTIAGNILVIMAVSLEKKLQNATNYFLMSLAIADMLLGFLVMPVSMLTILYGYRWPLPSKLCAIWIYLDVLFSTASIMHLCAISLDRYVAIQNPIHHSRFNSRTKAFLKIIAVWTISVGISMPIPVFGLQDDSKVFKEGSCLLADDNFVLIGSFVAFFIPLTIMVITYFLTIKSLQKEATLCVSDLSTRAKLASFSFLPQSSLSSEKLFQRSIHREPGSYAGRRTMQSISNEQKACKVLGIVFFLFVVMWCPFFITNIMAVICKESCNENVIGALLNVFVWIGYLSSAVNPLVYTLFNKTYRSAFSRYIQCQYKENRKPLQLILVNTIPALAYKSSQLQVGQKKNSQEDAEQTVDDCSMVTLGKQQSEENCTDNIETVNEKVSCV

| Ki [1] [nM] | Ki (D(2) dopamine receptor) [nM] | Ki [2] [nM] | SMILES |
| --- | --- | --- | --- |
| 752 | 1760 | 1860 | O=C(CCN1CCN(c2ccccc2)CC1)c1cc2c3c(c1)CCC(=O)N3CCC2 |
| 34.7 | 89.1 | 168 | O=C(CCCCCN1CCC(c2noc3cc(F)ccc23)CC1)c1cc2c3c(c1)CCN3C(=O)CC2 |
| 37.8 | 104 | 53.9 | O=C(CCCN1CCN(c2cccc(Cl)c2Cl)CC1)c1cc2c3c(c1)CCN3C(=O)CC2 |
| 17.9 | 19.2 | 25.3 | O=C(CCCN1CCC(c2noc3cc(F)ccc23)CC1)c1cc2c3c(c1F)CCC(=O)N3CC2 |
| 207 | 1850 | 196 | Cc1cccc(N2CCN(CCC(=O)c3cc4c5c(c3)CCC(=O)N5CCC4)CC2)c1C |
| 59.3 | 74.3 | 69.1 | O=C1CCc2cc(CCCCN3CCC(c4noc5cc(F)ccc45)CC3)cc3c2N1CCC3 |
| 178 | > 2000 | 965 | COc1ccccc1N1CCN(CCC(=O)c2cc3c4c(c2)CCC(=O)N4CCC3)CC1 |
| 79.8 | 283 | 149 | O=C(CCCN1CCN(c2cccc(Cl)c2Cl)CC1)c1cc2c3c(c1)CCC(=O)N3CCC2 |
| 58.9 | 185 | 169 | Cc1cccc(N2CCN(CCCC(=O)c3cc4c5c(c3)CCC(=O)N5CCC4)CC2)c1C |
| 557 | > 2000 | 1970 | O=C(CCN1CCN(c2ncccn2)CC1)c1cc2c3c(c1)CCC(=O)N3CCC2 |
| 175 | 189 | 84.6 | Cc1cccc(N2CCN(CCC(=O)c3cc4c5c(c3)CCN5C(=O)CC4)CC2)c1C |
| 50.3 | 49.9 | 31.8 | O=C(CCCN1CCN(c2nsc3ccccc23)CC1)c1cc2c3c(c1)CCN3C(=O)CC2 |
| 207 | 1220 | 269 | O=C(CCN1CCN(c2cccc(Cl)c2Cl)CC1)c1cc2c3c(c1)CCC(=O)N3CCC2 |
| 19.1 | 31.8 | 32.6 | O=C(CCCCN1CCC(c2noc3cc(F)ccc23)CC1)c1cc2c3c(c1)CCC(=O)N3CCC2 |
| 21.9 | 18.3 | 19.1 | O=C(CCCN1CCC(c2noc3cc(F)ccc23)CC1)c1cc2c3c(c1F)CCN3C(=O)CC2 |
| 52.3 | 58.2 | 62.9 | O=C(CCN1CCC(c2noc3cc(F)ccc23)CC1)c1cc2c3c(c1)CCC(=O)N3CCC2 |
| 17.4 | 19.7 | 16.4 | O=C(CCN1CCC(c2noc3cc(F)ccc23)CC1)c1cc2c3c(c1)CCN3C(=O)CC2 |
| 68.4 | 88.8 | 54.6 | O=C(CCN1CCN(c2nsc3ccccc23)CC1)c1cc2c3c(c1)CCN3C(=O)CC2 |
| 59.6 | 19.6 | 29.3 | O=C1CCc2cc(C(O)CCN3CCC(c4noc5cc(F)ccc45)CC3)cc3c2N1CC3 (stereo not drawn) |
| 22.3 | 18.2 | 32.9 | O=C(CCCN1CCC(c2noc3cc(F)ccc23)CC1)c1cc2c3c(c1)CCC(=O)N3CCC2 |
| 87.9 | 91.4 | 153 | O=C(CCCN1CCN(c2nsc3ccccc23)CC1)c1cc2c3c(c1)CCC(=O)N3CCC2 |
| 173 | 861 | 392 | O=C(CCN1CCC(c2nc3ccccc3s2)CC1)c1cc2c3c(c1)CCC(=O)N3CCC2 |
| 92.5 | 188 | 81.6 | O=C(CCN1CCN(c2cccc(Cl)c2Cl)CC1)c1cc2c3c(c1)CCN3C(=O)CC2 |
| 72 | 182 | 129 | O=C(CCN1CCN(c2nsc3ccccc23)CC1)c1cc2c3c(c1)CCC(=O)N3CCC2 |
| 765 | 900 | > 2000 | O=C(CN1CCC(c2noc3cc(F)ccc23)CC1)c1cc2c3c(c1)CCC(=O)N3CCC2 |
| 83.4 | 85.8 | 82.9 | CC1CC(=O)N2CCCc3cc(CCCCN4CCC(c5noc6cc(F)ccc56)CC4)cc1c32 (stereo not drawn) |
